Reference: patent publication US8163906B2, “Dihydroquinone and dihydronaphthridine inhibitors of JNK” (Roche Palo Alto, LLC, priority 2007, dated 2012)

Question: Which melting point does the source give for `C=CCn1c(C(=O)OC)c(Cc2ccc(S(C)(=O)=O)cc2)c(=O)c2ccc(C)nc21` [Compound 139] here?
Answer: 168 to 169 °C

Question: For `COC(=O)c1c(CN2CCOCC2)c(=O)c2ccc(F)cc2n1-c1ccccc1` [Compound 123], which melting point is on record?
Answer: 169 to 170 °C

Question: For `COC(=O)c1c(Cc2ccc(S(=O)(=O)C(C)CO)cc2)c(=O)c2ccc(C)nc2n1-c1ccccc1` (stereo not shown) [Compound 119], which melting point is on record?
Answer: 195.9 to 197.2 °C

Question: For `COC(=O)c1c(Cc2ccc(SCCO)cc2)c(=O)c2ccc(F)cc2n1-c1ccccc1` [Compound 111], which melting point is on record?
Answer: 163 to 164 °C

Question: Which melting point does the source give for `COC(=O)c1c(CN2CCS(=O)(=O)CC2)c(=O)c2ccc(F)cc2n1-c1ccccc1` [Compound 132] here?
Answer: 119 to 120 °C

Question: Which melting point does the source give for `COC(=O)c1c(Cc2ccc(S(C)(=O)=O)cc2)c(=O)c2ccc(C(F)(F)F)nc2n1-c1ccccc1` [Compound 115] here?
Answer: 193 to 195 °C

Question: Which melting point does the source give for `COC(=O)c1c(Cc2ccc(S(=O)(=O)N3CCNCC3(C)C)cc2)c(=O)c2ccc(F)cc2n1-c1ccccc1.Cl` here?
Answer: 211 to 212 °C

Question: Which melting point does the source give for `COC(=O)c1c(CN2CCC(C#N)CC2)c(=O)c2ccc(F)cc2n1-c1ccccc1` [Compound 136] here?
Answer: 159 to 160 °C

Question: Which melting point does the source give for `COC(=O)c1c(Cc2ccc(S(=O)(=O)N3CCN(C(=O)OC(C)(C)C)CC3(C)C)cc2)c(=O)c2ccc(F)cc2n1-c1ccccc1` [Compound 113] here?
Answer: 116 to 117 °C

Question: For `CCOC(=O)C1CCN(Cc2c(C(=O)OC)n(-c3ccccc3)c3cc(F)ccc3c2=O)CC1` [Compound 133], which melting point is on record?
Answer: 136 to 137 °C

Question: Which melting point does the source give for `COC(=O)c1c(Cc2ccc(Cl)nc2)c(=O)c2ccc(C)nc2n1-c1ccccc1` [Compound 83, 3-(6-chloro-pyridin-3-ylmethyl)-7-methyl-4-oxo-1-phenyl-1,4-dihydro[1,8]naphthyridine-2-carboxylic acid methyl ester] here?
Answer: 220 to 220.5 °C

Question: For `COC(=O)c1c(Cc2cnc(OC)nc2)c(=O)c2ccc(F)cc2n1-c1ccccc1` [Compound 125], which melting point is on record?
Answer: 206 to 207 °C

Question: Which melting point does the source give for `O=c1c(Cc2ccccc2)c(-c2ncco2)n(-c2ccccc2)c2cc(Cl)ccc12` [Compound 140, 3-benzyl-7-chloro-2-oxazol-2-yl-1-phenyl-1H-quinolin-4-one] here?
Answer: 219 to 220 °C

Question: With `COC(=O)c1c(Cc2ccc(S(=O)(=O)N3CCNCC3)cc2)c(=O)c2ccc(F)cc2n1-c1ccccc1.Cl` as the compound, how does the melting point read?
Answer: 214 to 215 °C

Question: With `COC(=O)c1c(Cc2ccc(C(=O)NCCO)cc2)c(=O)c2ccc(C(F)(F)F)nc2n1-c1ccccc1` [Compound 116] as the compound, how does the melting point read?
Answer: 170 to 173 °C

Question: For `COC(=O)c1c(Cc2ccc(S(C)(=O)=O)nc2)c(=O)c2ccc(C)nc2n1-c1ccccc1` [Compound 92, 3-(6-Methanesulfonyl-pyridin-3-ylmethyl)-7-methyl-4-oxo-1-phenyl-1,4-dihydro[1,8]naphthyridine-2-carboxylic Acid Methyl Ester], which melting point is on record?
Answer: 217 to 218 °C

Question: For `COCCOC(=O)c1c(Cc2ccccc2)c(=O)c2ccc(F)cc2n1-c1ccccc1` [Compound 130, 3-Benzyl-7-fluoro-4-oxo-1-phenyl-1,4-dihydro-quinoline-2-carboxylic acid 2-methoxy-ethyl ester], which melting point is on record?
Answer: 168 to 169 °C

Question: Which melting point does the source give for `COC(=O)c1c(Cc2ccc(C#N)cc2)c(=O)c2ccc(F)cc2n1-c1ccccc1` [Compound 124] here?
Answer: 218 to 219 °C

Question: With `COC(=O)c1c(Cc2ccc(S(=O)(=O)N3CCN(C(=O)OC(C)(C)C)CC3)cc2)c(=O)c2ccc(F)cc2n1-c1ccccc1` [Compound 108] as the compound, how does the melting point read?
Answer: 120 to 121 °C

Question: With `COC(=O)c1c(Cc2ccc(S(=O)(=O)CCO)cc2)c(=O)c2ccc(F)cc2n1-c1ccccc1` [Compound 112] as the compound, how does the melting point read?
Answer: 165 to 166 °C

Question: Which melting point does the source give for `CCNC(=O)c1ccc(Cc2c(C(=O)OC)n(-c3ccccc3)c3nc(C)ccc3c2=O)cn1` [Compound 101, 3-(6-Ethylcarbamoyl-pyridin-3-ylmethyl)-7-methyl-4-oxo-1-phenyl-1,4-dihydro[1,8]naphthyridine-2-carboxylic Acid Methyl Ester] here?
Answer: 208 to 209 °C

Question: For `COC(=O)c1c(CN2CCN(S(C)(=O)=O)CC2)c(=O)c2ccc(F)cc2n1-c1ccccc1` [Compound 131], which melting point is on record?
Answer: 205 to 207 °C
